Several values for one entry are separate records, joined by “and”; a condition that tells them apart may be missing. Identical values can stand only once. One block for each compound: values may come before it.
Key:
[1] = Scanning electron microscope (SEM) analysis, particle size; type: physicochemical
Description: For reference, an analysis instrument and analysis conditions are as follows. (1) Analysis instrument: HITACHI (S-2700), Japan (2) Electron gun: Tungsten filament type (3) Resolution: 4.0 nm (4) Accelerating voltage: 15.0 kV.

[2] = Body weight and body weight gain of high-fat diet mice; type: in vivo, mice (C57BL/6); conditions: for Body weight gain, Mean / Body weight, Mean: sample in drinking water, metformin 250 mg/kg
Experimental: (§1) Using 8-week-old male mice (C57BL/6) (purchased from CoreTech), anti-diabetic candidate materials were evaluated using a GTT (Glucose Tolerance Test) that is a typical method for diagnosis of diabetes.
(§2) Mice were housed at a temperature of 22±2° C. and a relative humidity of 55-60% with 12-hr light/12-hr dark cycles. Five animals were allotted to each group, and mice from the same mother were grouped into one group, because male mice tend to fight together.
(§3) As feed, high-fat diet (60% of calories from fat; Research Diet Inc., New Brunswick, N.J.) and water were fed ad libitum for 10 weeks. Herein, the water fed contained the samples prepared in Examples 1-2 (3), 2-1, 2-4-1, 2-4-2 and 2-5. As a positive control, metformin (M-072, Sigma) (250 mg/kg) was used, and as a control, the samples prepared in Comparative Examples 1-1, 2-3-2, 2-5-1, 2-5-2 and 2-6 were used.
(§4) For reference, each of the samples prepared in Examples 2-4-1, 2-4-2 and 2-5 was set to the amount to be taken by an adult (60 kg) for 3 days, and the amount was converted into a mouse dose (12-fold/kg, see the US NIH guidance), thereby preparing animal feed. Namely, the amount to be taken by an adult (60 kg) for 3 days is 180-day dose/kg, which corresponds to 15-day dose/kg for mice. Thus, the amount corresponds to 750-day dose/mouse (20 g), because the average weight of mice is about 20 g. Thus, one mouse was allowed to take 1/750 of the prepared sample each day.
(§5) In addition, each of the samples prepared in Examples 1-2 (3) and 2-1 was set to the amount to be taken by an adult (60 kg) for 2 days, and the amount was converted into a mouse dose (12-fold/kg, see the US NIH guidance), thereby preparing animal feed. Namely, the amount to be taken by an adult (60 kg) for 2 days is 120-day dose/kg, which corresponds to 10-day dose/kg for mice. Thus, the amount corresponds to 500-day dose/mouse (20 g), because the average weight of mice is about 20 g. Thus, one mouse was allowed to take 1/500 of the prepared sample each day.
The diet intake and the body weight gain were measured weekly for 8 weeks. The body weight and the diet intake were measured immediately before first drug administration, and then measured at one-week intervals.
(§6) Meanwhile, experimental analysis results were expressed as mean±S.E.M., and the significance between test groups was statistically processed using Student T-TEST, and then the significance was verified at *P<0.05.

[3] = Glucose tolerance test (GTT) in high-fat diet mice; type: in vivo, mice (C57BL/6); conditions: for Glucose level (mg/dl), Mean: GTT, high-fat diet mice
Experimental: as §1, §2, §3, §4, §5
At 8 weeks of high-fat diet feeding, a glucose tolerance test (GTT) was performed. For 8 hours for the test, mice were fasted. Then, blood was sampled from the tail vein, and initial blood glucose levels were measured with a blood glucose meter (AUTO-CHEK, Diatech Korea). Then, glucose was administered intraperitoneally to the mice at a concentration of 1 g/kg, and after 30 min, 60 min, 90 min and 120 min, blood was sampled from the mice, followed by measurement of blood glucose levels (each group consisting of five animals).
as §6

[4] = Thermogravimetric analysis (TGA); type: physicochemical; conditions: first-order differentiation of TGA; N2, 20° C./min
Experimental: For reference, an analysis instrument and analysis conditions are as follows. (1) Analysis instrument: TGA 7 (Perkin-Elmer) (2) Atmosphere: N2 gas (3) Heating rate: 20° C./min (4) Range: 50 to 600° C.

[5] = Blood biochemistry (triglyceride, AST, ALT) in high-fat diet mice; type: in vivo, mice (C57BL/6); conditions: blood
Experimental: as §1, §3
In blood biochemistry, insulin (AKRIN-011T, Shibayagi, Japan), glucose (AM202, Asan Pharmaceutical Co., Ltd., Korea), triglyceride (AM157, Asan Pharmaceutical Co., Ltd.), total cholesterol (AM202, Asan Pharmaceutical Co., Ltd.), AST and ALT (Asan Pharmaceutical Co., Ltd.) were analyzed using enzymatic assay kits.
At 10 weeks of high-fat diet feeding, the mice were sacrificed by cervical dislocation to obtain serum. For histological examination, the liver, white adipose tissue (WAT), brown adipose tissue (BAT) and kidney were fixed with formalin (50-00-0, Junsei, Japan), and the remaining organs were stored at −70° C. The blood sampled from the heart was coagulated to obtain serum which was then stored at −70° C.
as §6

plasma [6] = assay: Anticoagulant activity: activated partial thromboplastin time (aPTT); type: biochemical, human; conditions: 20 μl sample + 80 μl plasma, test material g/dL (Asp 7.5 mg/Ml)
Experimental: (§7) Antithrombotic (anticoagulant) activity was evaluated according to a previously reported method. Each of thromborel S, actin and thrombin, which are reagents for Sysmex CA-1500 for analysis of PT, aPTT and TT, was mounted in Sysmex CA-1500 (Siemens Healthcare, Germany) which is an automated blood coagulation test device. According to the automated procedure of the test device, clotting time (sec) (prothrombin time (PT), activated partial thromboplastin time (aPTT) and thrombin time (TT)) was measured. A sufficient amount of a sample for each of the three analyses was about 400 uL of an 80:20 mixture of plasma and a test substance.
(§8) The isolated plasma was used in an experiment in a fresh state within 5-6 hours.
(§9) In this experiment, for the relative comparison of the measured clotting time (sec) (PT, aPTT and TT) between test groups, clotting time prolongation (%) relative to triple distilled water (purified water) that is a normal control test sample was statistically analyzed. For statistical analysis, the […] anticoagulant activities of test materials were comparatively analyzed using SPSS IBM version 21.0 by one-way ANOVA at p<0.05, and significance comparison between groups was performed by Duncan's test.
(§10) The aspirin solution was immediately used at room temperature in a light-shielded state or was cold-stored.
(§11) As a control, aspirin was used, and as a vehicle control, triple distilled water (purified water) was used instead of the sample.

plasma [7] = assay: Anticoagulant activity: prothrombin time (PT); type: biochemical, human; conditions: 20 μl sample + 80 μl plasma, test material g/dL (Asp 7.5 mg/Ml)
Experimental: as §7, §8, §9, §10, §11

plasma [8] = assay: Anticoagulant activity: thrombin time (TT); type: biochemical, human; conditions: 20 μl sample + 80 μl plasma, test material g/dL (Asp 7.5 mg/Ml)
Experimental: as §7, §8, §9, §10, §11

- Average particle size [1]: 222.06 μm
- Median particle size [1]: 192.92 μm
- Final decomposition temperature [4]: 394 °C
- First decomposition temperature [4]: 362 °C
Compound: NCCS(=O)(=O)O [DT19, taurine]
- Body weight gain, Mean ([2]; 1 week): 2.20 g
- Body weight, Mean ([2]; 1 week): 21.46 g
- Body weight gain, Mean ([2]; 2 weeks): 4.36 g
- Body weight, Mean ([2]; 2 weeks): 23.62 g
- Body weight gain, Mean ([2]; 3 weeks): 5.34 g
- Body weight, Mean ([2]; 3 weeks): 24.60 g
- Body weight gain, Mean ([2]; 4 weeks): 6.52 g
- Body weight, Mean ([2]; 4 weeks): 25.78 g
- Body weight gain, Mean ([2]; 5 weeks): 8.12 g
- Body weight, Mean ([2]; 5 weeks): 27.38 g
- Body weight gain, Mean ([2]; 6 weeks): 7.94 g
- Body weight, Mean ([2]; 6 weeks): 27.20 g
- Body weight gain, Mean ([2]; 7 weeks): 8.80 g
- Body weight, Mean ([2]; 7 weeks): 28.06 g
- Body weight, Mean ([2]; 8 weeks): 28.78 g
- Body weight, Mean ([2]; before administration): 19.26 g
- Glucose level (mg/dl), Mean ([3]; 0 min): 111.80 mg/dL
- Glucose level (mg/dl), Mean ([3]; 30 min): 298.00 mg/dL
- Glucose level (mg/dl), Mean ([3]; 60 min): 295.60 mg/dL
- Glucose level (mg/dl), Mean ([3]; 90 min): 189.40 mg/dL
- Glucose level (mg/dl), Mean ([3]; 120 min): 119.00 mg/dL
- Fasting glucose level ([3]; at 8 weeks of high-fat diet feeding, 8 hours fasted): lower than that of the mice administered with high-fat diet (HFD), and were similar to the blood glucose levels of normal mice
- Glucose control ability in GTT ([3]; at 8 weeks of high-fat diet feeding, glucose 1 g/kg intraperitoneally, 30-120 min): significantly higher than that of the group administered with HFD alone
- ALT level (IU/L), Mean [5]: 25.47 IU/L
- AST level (IU/L), Mean [5]: 118.63 IU/L
- Triglyceride level (mg/dl), Mean [5]: 116.20 mg/dL

Compound: O=C(CO)[C@@H](O)[C@H](O)[C@H](O)CO [Fruc 6.2, fructose]
- aPTT, clotting time prolongation relative to purified water, Mean (plasma [6]; Table 4): −0.20%
- PT, clotting time prolongation relative to purified water, Mean (plasma [7]; Table 4): 0.54%
- TT, clotting time prolongation relative to purified water, Mean (plasma [8]; Table 4): 13.19%

Compound: O=C(CO)[C@@H](O)[C@H](O)[C@H](O)CO [Fruc 12.4, fructose]
- aPTT, clotting time prolongation relative to purified water, Mean (plasma [6]; Table 4): 0.58%
- PT, clotting time prolongation relative to purified water, Mean (plasma [7]; Table 4): 0.54%
- TT, clotting time prolongation relative to purified water, Mean (plasma [8]; Table 4): 30.07%

Compound: CC(=O)Oc1ccccc1C(=O)O [Asp, aspirin]
- aPTT, clotting time prolongation relative to purified water, Mean (plasma [6]; Table 2): 7.31%
- aPTT, clotting time prolongation relative to purified water, Mean (plasma [6]; Table 3): 16.28%
- aPTT, clotting time prolongation relative to purified water, Mean (plasma [6]; Table 4): 29.82%
- PT, clotting time prolongation relative to purified water, Mean (plasma [7]; Table 2): 9.90%
- PT, clotting time prolongation relative to purified water, Mean (plasma [7]; Table 3): 17.51%
- PT, clotting time prolongation relative to purified water, Mean (plasma [7]; Table 4): 26.02%
- TT, clotting time prolongation relative to purified water, Mean (plasma [8]; Table 2): 13.59%
- *TT, clotting time prolongation relative to purified water, Mean (plasma [8]; Table 3, values excluding one sample showing an extreme value): 20.96%
- TT, clotting time prolongation relative to purified water, Mean (plasma [8]; Table 4): 23.95%

Compound: CN(C)C(=N)N=C(N)N [Metformin, metformin]
- Body weight (g), Mean ([2]; 1 week): 23.550 g and 25.094 g
- Body weight gain, Mean ([2]; 1 week): 1.70 g
- Body weight, Mean ([2]; 1 week): 21.00 g
- Body weight (g), Mean ([2]; 2 weeks): 23.608 g and 26.344 g
- Body weight gain (g), Mean ([2]; 2 weeks): 2.503 g and 2.406 g
- Body weight gain, Mean ([2]; 2 weeks): 3.48 g
- Body weight, Mean ([2]; 2 weeks): 22.78 g
- Body weight (g), Mean ([2]; 3 weeks): 25.125 g and 27.430 g
- Body weight gain (g), Mean ([2]; 3 weeks): 4.020 g and 3.492 g
- Body weight gain, Mean ([2]; 3 weeks): 4.54 g
- Body weight, Mean ([2]; 3 weeks): 23.84 g
- Body weight (g), Mean ([2]; 4 weeks): 25.705 g and 27.708 g
- Body weight gain (g), Mean ([2]; 4 weeks): 4.600 g and 3.770 g
- Body weight gain, Mean ([2]; 4 weeks): 5.88 g
- Body weight, Mean ([2]; 4 weeks): 25.18 g
- Body weight (g), Mean ([2]; 5 weeks): 27.198 g and 28.572 g
- Body weight gain (g), Mean ([2]; 5 weeks): 6.093 g and 4.634 g
- Body weight gain, Mean ([2]; 5 weeks): 6.42 g
- Body weight, Mean ([2]; 5 weeks): 25.72 g
- Body weight (g), Mean ([2]; 6 weeks): 28.355 g and 28.772 g
- Body weight gain (g), Mean ([2]; 6 weeks): 7.250 g and 4.834 g
- Body weight gain, Mean ([2]; 6 weeks): 7.04 g
- Body weight, Mean ([2]; 6 weeks): 26.34 g
- Body weight (g), Mean ([2]; 7 weeks): 27.368 g and 28.468 g
- Body weight gain (g), Mean ([2]; 7 weeks): 6.263 g and 4.530 g
- Body weight gain, Mean ([2]; 7 weeks): 8.22 g
- Body weight, Mean ([2]; 7 weeks): 27.52 g
- Body weight (g), Mean ([2]; 8 weeks): 29.343 g and 27.608 g
- Body weight gain, Mean ([2]; 8 weeks): 8.90 g
- Body weight, Mean ([2]; 8 weeks): 28.20 g
- Body weight (g), Mean ([2]; before administration): 21.105 g and 23.938 g
- Body weight, Mean ([2]; before administration): 19.30 g
- Glucose level (mg/dl), Mean ([3]; 0 min): 144.20 mg/dL and 104.40 mg/dL
- Glucose level (mg/dl), Mean ([3]; 30 min): 386.40 mg/dL and 438.40 mg/dL
- Glucose level (mg/dl), Mean ([3]; 60 min): 301.40 mg/dL and 296.40 mg/dL
- Glucose level (mg/dl), Mean ([3]; 90 min): 194.40 mg/dL and 178.00 mg/dL
- Glucose level (mg/dl), Mean ([3]; 120 min): 135.20 mg/dL and 146.20 mg/dL
- Triglyceride level (mg/dl), Mean [5]: 62.99 mg/dL
